Measurements taken from PubChem BioAssay AID1963839 (Molecular Pharmacology Branch, DTP, NCI, 2024).

Tested on: 817829-284-R-J1-PDC complex spheroid viability
Experiment: Anticancer human tumor 817829-284-R-J1-PDC patient-derived colon adenocarcinoma cell line growth inhibition [POLQ]
Conditions: for IC50: curve of first compound; for viability, T/C: stronger effect = lower value
Procedure: Multicellular complex tumor spheroid response to Polymerase (POL) inhibitors (novobiocin, ART-558, RP6685) in combination with a variety of drugs and investigational agents in selected tumor cell lines
The POL inhibitors (novobiocin, ART-558, and RP6685) were evaluated both individually and in combination with standard of care and investigational anticancer small molecules within a complex spheroid model of solid tumors. . Complex spheroids include a stromal component modeled by human endothelial cells (HUVEC) and fibroblasts modeled by human mesenchymal stem cells (MSCs). The concentration ranges selected for each drug and investigational agent were based upon clinically achievable concentrations if the clinical Cmax of the agent was known.
Compounds. The drugs and investigational agents: novobiocin (NSC847541), ART-558 (NSC835418), RP-6685 (NSC848927), peposertib (NSC802822), ceralasertib (NSC780249), elimusertib (NSC800525), camonsertib (NSC841442), AZD-1390 (NSC803789), olaparib (NSC753686), talazoparib (NSC767125), rucaparib (NSC756644), sotorasib (NSC818433), MRTX-1133 (NSC836407), SN-38 (NSC673596), topotecan (NSC609699), epotoside (NSC141540), doxorubicin (NSC123127), gemcitabine (NSC613327), 5-fluorouracil (NSC19893), paclitaxel (NSC125973), vemurafenib (NSC761431), MSA-2 (NSC828583), SN-011 (NSC837082), adavosertib (NSC754352), prexasertib (NSC758257), carboplatin (NSC241240) and oxaliplatin (NSC266046), were obtained from the National Cancer Institute (NCI) Developmental Therapeutics Program Chemical Repository (21). The FDA-approved anticancer drug set is available from the Developmental Therapeutics Program at https://dtp.cancer.gov/organization/dscb/obtaining/. […] The stock solutions were prepared in dimethyl sulfoxide (DMSO, Sigma-Aldrich, St. Louis, MO, cat. D2650), except for the platinum compounds which were prepared in saline (Quality Biological, Gaithersburg, MD, cat. 114-055-101), at 800-fold the tested concentration and stored at -70 degrees C prior to their use. All drugs and investigational agents were tested over a range starting from a high concentration at or near the clinical Cmax and decreasing in half-log increments. If the clinical Cmax for an agent had not been determined, the highest concentration tested was 10 microM, except for SN-38, which was tested at a high concentration of 1 microM.
Cell Culture. All cells were maintained in an incubator at 37 degrees C and 5% CO2 with 95% humidity. The PDC lines were cultured according to standard operating procedures established by the NCI PDMR (https://pdmr.cancer.gov). Table 3 of the manuscript, lists the cell lines along with the number of the three cell types plated to form the mct-spheroids and media for tumor cell growth. After thawing, all PDC lines, except 997537-175-T-J1-PDC and 415267-285-R-J2-PDC, were cultured in Matrigel-coated flasks prepared with a working solution of 1X Ham's F-12 nutrient mix, without supplementation (Thermo Fisher Scientific, cat. 11765054), 100 U/mL penicillin-streptomycin (Thermo Fisher Scientific, cat. 15140122), and 2.5% Matrigel (Corning Inc., Corning, NY, cat. 354248) for the first three passages. The two PDC lines 997537-175-T-J1-PDC and 415267-285-R-J2-PDC were cultured on uncoated flasks. The 857933-349-R-J2-PDC line was cultured in 6C/Colon 1B media containing advanced DMEM/F-12 (Thermo Fisher Scientific, cat. 12634028), 10 mM HEPES (Thermo Fisher Scientific, cat. 15630080), 1X GlutaMAX supplement (Thermo Fisher Scientific, cat. 35050061), 0.1 mg/mL primocin (InvivoGen, San Diego, CA, cat. ant-pm-2), 10% defined fetal bovine serum, heat inactivated (HyClone Laboratories Inc., Logan, UT, cat. SH30070.03HI), 50% L-WRN conditioned media (ATCC, cat. CRL-3276), 1.25 mM N-Acetyl-L-cysteine (Sigma-Aldrich, cat. A9165), 10 mM nicotinamide (Sigma-Aldrich, cat. N0636), 1X B-27 supplement (Thermo Fisher Scientific, cat. 17504044), 1X N-2 supplement (Thermo Fisher Scientific, cat. […]
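Also: spheroids exposed to compounds for 7 days.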
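For viability, T/C in this document: 100% = DMSO vehicle-treated spheroids.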

With C=CC(=O)N1CCN(c2nc(=O)n(-c3c(C)ccnc3C(C)C)c3nc(-c4c(O)cccc4F)c(F)cc23)C(C)C1 (configuration not stated) + Cc1cccc(N(C)C(=O)C2C(O)CCN2c2nc(C)cc(C(F)(F)F)c2C#N)c1 the IC50 (second compound 0.0316 µM) was 9.4 µM, the IC50 (second compound 0.1 µM) was 9.47 µM and the IC50 (second compound 0.316 µM) was 9.09 µM. For the same compound, the IC50 (second compound 1 µM) was 7.8 µM, the IC50 (second compound 3.16 µM) was 7.29 µM and the IC50 (second compound 10 µM) was over 10 µM. For the same compound, the viability, T/C (second compound 0.0316 µM, first compound 0.0316 µM) was 94.4%, the viability, T/C (second compound 0.0316 µM, first compound 0.1 µM) was 140% and the viability, T/C (second compound 0.0316 µM, first compound 0.316 µM) was 112%. For the same compound, the viability, T/C (second compound 0.0316 µM, first compound 1 µM) was 105%, the viability, T/C (second compound 0.0316 µM, first compound 3.16 µM) was 82.7% and the viability, T/C (second compound 0.0316 µM, first compound 10 µM) was 48%. It also gave a viability, T/C (second compound 0.1 µM, first compound 0.0316 µM) of 91.1%, a viability, T/C (second compound 0.1 µM, first compound 0.1 µM) of 109% and a viability, T/C (second compound 0.1 µM, first compound 0.316 µM) of 104%. It also gave a viability, T/C (second compound 0.1 µM, first compound 1 µM) of 110%, a viability, T/C (second compound 0.1 µM, first compound 3.16 µM) of 86.3% and a viability, T/C (second compound 0.1 µM, first compound 10 µM) of 48.2%. The viability, T/C (second compound 0.316 µM, first compound 0.0316 µM) was 92.2%, the viability, T/C (second compound 0.316 µM, first compound 0.1 µM) was 109% and the viability, T/C (second compound 0.316 µM, first compound 0.316 µM) was 108%. For the same compound, the viability, T/C (second compound 0.316 µM, first compound 1 µM) was 83.5%, the viability, T/C (second compound 0.316 µM, first compound 3.16 µM) was 83.1% and the viability, T/C (second compound 0.316 µM, first compound 10 µM) was 46.9%. For the same compound, the viability, T/C (second compound 1 µM, first compound 0.0316 µM) was 92.9%, the viability, T/C (second compound 1 µM, first compound 0.1 µM) was 91.2% and the viability, T/C (second compound 1 µM, first compound 0.316 µM) was 112%. It also gave a viability, T/C (second compound 1 µM, first compound 1 µM) of 99%, a viability, T/C (second compound 1 µM, first compound 3.16 µM) of 86.4% and a viability, T/C (second compound 1 µM, first compound 10 µM) of 39.9%. It also gave a viability, T/C (second compound 3.16 µM, first compound 0.0316 µM) of 113%, a viability, T/C (second compound 3.16 µM, first compound 0.1 µM) of 125% and a viability, T/C (second compound 3.16 µM, first compound 0.316 µM) of 87.8%. The viability, T/C (second compound 3.16 µM, first compound 1 µM) was 89.3%, the viability, T/C (second compound 3.16 µM, first compound 3.16 µM) was 76.3% and the viability, T/C (second compound 3.16 µM, first compound 10 µM) was 39.9%. It also gave a viability, T/C (second compound 10 µM, first compound 0.0316 µM) of 89.4%, a viability, T/C (second compound 10 µM, first compound 0.1 µM) of 104% and a viability, T/C (second compound 10 µM, first compound 0.316 µM) of 84%. For the same compound, the viability, T/C (second compound 10 µM, first compound 1 µM) was 113%, the viability, T/C (second compound 10 µM, first compound 3.16 µM) was 66.9% and the viability, T/C (second compound 10 µM, first compound 10 µM) was 54.9%.
